Test results as given in PubChem BioAssay (NCI).
Values joined by “and” are separate entries in the source; they are usually repeats but may differ in a detail not shown here. Equal entries are not always repeated.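 Results reflect a 48-hour exposure of cells in 96-well plates to compound at five concentrations. GI50 = concentration required for 50% inhibition of growth. TGI: total growth inhibition.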

test system: KM12 colon; assay: NCI anticancer screen, dose series, 48 h

SMILES | TGI | GI50
CCNC(=O)/C(=C/c1ccc(OC)cc1)c1cc(OC)c(OC)c(OC)c1 | > 100 µM | 
CCCc1cc(=O)n2c(C(=O)Nc3ccc(Cl)cc3C)c(C(=O)Nc3ccc(F)cc3)sc2n1 | > 150 µM | 13.5 µM
COc1ccc(-c2ccc3c(N4CCOC[C@@H]4C)nc(N4CCOC[C@@H]4C)nc3n2)cc1CO | > 100 µM | 0.00626 µM and 0.0449 µM
N[C@H](CCC(=O)N[C@@H](Cc1c[nH]c2ccccc12)C(=O)O)C(=O)O | > 100 µM | > 100 µM
COc1ccc(-c2nc(-c3cc(OC)cc(OC)c3)[nH]c2-c2ccc(OC)cc2)cc1 | > 100 µM | 6.2 µM
CN(C)CCNCCN | > 100 µM | 
COC(=O)c1cc2c(o1)-c1nccc3c1c(nc1ccccc13)C2=O | 16.7 µM | 3.77 µM
Nc1ccccc1O.O.O=C(O)C1[O][Sb][O]C1C(=O)O (centres undefined) | > 100 µM | > 66.2 µM
O=C(c1ccco1)c1c(C(F)(F)F)n([O-])c2ccc(C(F)(F)F)cc2[n+]1=O | 0.973 µM | 0.467 µM
OC(c1cc(-c2ccc(C(F)(F)F)cc2)nc(C(F)(F)F)c1)C1CCCCN1 (centres undefined) | 3.13 µM and 3.35 µM | 
CC(C)CC(C/C=C1/CC(CO)(COC(=O)C(C)(C)C)OC1=O)CC(C)C (centres undefined) | 29.3 µM and 33.2 µM | 13.7 µM and 14.8 µM
O=C(Nc1cc(Nc2ncccc2-c2ncnc3nc[nH]c23)ccc1F)c1cc(C(F)(F)F)cc(C(F)(F)F)c1 | 4.03 µM | 1.53 µM
CC1(C)CN=C(NN=C(/C=C/c2ccc(C(F)(F)F)cc2)/C=C/c2ccc(C(F)(F)F)cc2)NC1 | 2.45 µM | 1.21 µM

test system: SK-MEL-28 melanoma; assay: NCI anticancer screen, dose series, 48 h

SMILES | GI50 | TGI
COC(=O)C1=COC(C)C2CN3CCc4c([nH]c5ccccc45)C3CC12 (centres undefined) | 16.1 µM and > 100 µM | 41.8 µM and > 100 µM
O=C(NCc1ccc(Cn2c(=O)sn(-c3ccccc3)c2=O)cc1)OCc1ccc2cccc(O)c2n1 | 1.34 µM | 2.64 µM
COC(c1ccc(C(C)(C)C)cc1)(c1ccc(C(C)(C)C)cc1)c1ccc(C(C)(C)C)cc1 |  | > 100 µM
CC(C)c1[nH]nc2c1N=C(c1ccccc1Cl)c1cc([N+](=O)[O-])ccc1N2 | 6.26 µM | > 25 µM
Nc1cc2c(cc1Br)[nH]c(=O)c1ccccc12 | 4.25 µM | 15.5 µM
COc1ccc(-c2nccn2-c2ccc(OC)cc2)cc1 | 19.1 µM | 60.6 µM
O=C(/C=C/c1ccccc1)c1ccccc1 |  | > 10 µM
CC(C)[C@H](O)C(=O)N[C@@H](C)C(=O)N[C@@H]1C(=O)N(C)CCc2ccccc21 | > 100 µM | > 100 µM
C=CC(=O)N1CN(C(=O)C=C)CN(C(=O)C=C)C1 | 4.02 µM | 16.2 µM
COc1ccc(-c2cnnn2-c2nonc2-n2cccc2)cc1 | 0.52 µM | > 100 µM
C#CCOc1cccc(Nc2ncnc3c(NC(=O)C=C)cccc23)c1 | 20.6 µM | 88.6 µM
CO[C@H]1Nc2c(ccc(C)c2O)C(=O)N2C=C(/C=C/C(N)=O)C[C@@H]12 |  | 0.0829 µM
O=C(/C(=C\c1c(-c2ccccc2)[nH]c2ccccc12)S(=O)(=O)c1ccccc1)c1ccccc1 | > 100 µM | > 100 µM
COc1ccc(C(=O)c2cc(OC)c(OC)c(OC)c2)cc1OC |  | > 100 µM
CCNC(=O)/C(=C/c1ccc(OC)cc1)c1cc(OC)c(OC)c(OC)c1 |  | > 100 µM
CCCc1cc(=O)n2c(C(=O)Nc3ccc(Cl)cc3C)c(C(=O)Nc3ccc(F)cc3)sc2n1 | 8.07 µM | 46 µM
COc1ccc(-c2ccc3c(N4CCOC[C@@H]4C)nc(N4CCOC[C@@H]4C)nc3n2)cc1CO | 0.00476 µM and 0.0135 µM | 0.181 µM
N[C@H](CCC(=O)N[C@@H](Cc1c[nH]c2ccccc12)C(=O)O)C(=O)O | > 100 µM | > 100 µM
COc1ccc(-c2nc(-c3cc(OC)cc(OC)c3)[nH]c2-c2ccc(OC)cc2)cc1 | > 100 µM | > 100 µM
CN(C)CCNCCN |  | > 100 µM
COC(=O)c1cc2c(o1)-c1nccc3c1c(nc1ccccc13)C2=O | 11.5 µM | 25.4 µM
